Reference: patent US20220033448A1, “METHODS FOR AGGREGATION OF PROTEINS” (priority 2011, published 2022)
No end group written: not given here.

Key:
β-Gal [1] = molecular target: T1, β-Gal (Escherichia coli, UniProt P00722); conditions: equimolar concentrations of enzyme and interferor (10 μM)
Method: Enzyme functional readout was performed using the substrate fluorescein-di-I3-D-galactopyranoside (FDG), which is non-fluorescent but on enzymatic cleavage by β-Gal fluorescent fluorescein is liberated with intensity proportional to the catalytic activity.

β-Gal [2] = molecular target: T1, β-Gal; conditions: 3-state model; 25° C.; 0-4 μM peptide
Method: In this in vitro experiment the affinity of different interferor peptides was measured for binding to β-gal by means of surface plasmon resonance (SPR). SPR experiments were performed at 25° C. using a Biacore T100 equipped with CM5 sensor chip (GE Healthcare.). Coupling reagents (N-ethyl-N′-(3-dimethylaminopropyl)carbodiimide (EDC), N-hydroxysuccinimide (NHS) and ethanolamine-HCI) were purchased from GE Healthcare. BSA and β-gal were purchased from Sigma-Aldrich and Roche Diagnostics, respectively. […] The proteins BSA and β-Gal were immobilized respectively, in the reference and sample channels on a CM5 sensor chip by standard amine coupling chemistry at a flow of 10 μl min^−1. The carboxymethyl dextran surface was activated by the injection of a 1:1 ratio of EDC and NHS for 7 minutes. The proteins were diluted in 10 mM sodium-acetate buffer, pH 4.5 to a final concentration of 0.2 mg m1^−1 and injected in short pulses over the activated surface until the immobilization levels reached 4000 RU or 8000 RU, for BSA and β-Gal, respectively. The remaining reactive groups were blocked with 1 M ethanolamine, pH 8. After completion of coupling, the surface was regenerated with short pulses of 50 mM NaOH and 8 M urea to remove non-covalently attached proteins. […] The peptides, dissolved in the running buffer (10 mM sodium phosphate, pH 6.8, 150 mM NaCI, 3 mM EDTA and 0.015% Tween 20) at a concentration of 1 μM, were injected for 60 s at a flow rate of 30 μl min^−1 and then allowed to dissociate for 600 s. The injection was repeated on the same surface as well as on independently immobilized surfaces. The surface was regenerated between each cycle by 30 s pulses of i) 50 mM NaOH, and ii) 8 M urea, and was allowed to stabilize for 400 s before the next cycle.
The peptide dissolved in the running buffer was injected for 60 s at a flow-rate of 301.11min′ over the reference (BSA) and sample (β-Gal) surfaces in a range of concentrations (0-4 μM, with one internal replicate) and were then allowed to dissociate for 600 s. The concentration series were repeated on the same surface (three times) as well as on independently immobilized surfaces. The surface was regenerated between each cycle by 30 s pulses of i) 50 mM NaOH, and ii) 8 M urea, and was allowed to stabilize for 400 s before the next cycle.
The data were globally fitted to a three-state model, using the Biacore T100 software, assuming an initial encounter between the peptide in solution and the protein on the chip followed by a two-step rearrangement before an identical binding site becomes available at the growing β-sheet.

mVEGFR2 = molecular target: T2, mVEGFR2 (Mus musculus, UniProt P35918); assay: Immunohistochemical staining of mVEGFR2 in HEK293 cells (cellular localization); type: cell-based; conditions: 10 μM, overnight treatment
T2 construct: expressed in transfected cells; host or cells: HEK293
T2 sequence (P35918 20-1345): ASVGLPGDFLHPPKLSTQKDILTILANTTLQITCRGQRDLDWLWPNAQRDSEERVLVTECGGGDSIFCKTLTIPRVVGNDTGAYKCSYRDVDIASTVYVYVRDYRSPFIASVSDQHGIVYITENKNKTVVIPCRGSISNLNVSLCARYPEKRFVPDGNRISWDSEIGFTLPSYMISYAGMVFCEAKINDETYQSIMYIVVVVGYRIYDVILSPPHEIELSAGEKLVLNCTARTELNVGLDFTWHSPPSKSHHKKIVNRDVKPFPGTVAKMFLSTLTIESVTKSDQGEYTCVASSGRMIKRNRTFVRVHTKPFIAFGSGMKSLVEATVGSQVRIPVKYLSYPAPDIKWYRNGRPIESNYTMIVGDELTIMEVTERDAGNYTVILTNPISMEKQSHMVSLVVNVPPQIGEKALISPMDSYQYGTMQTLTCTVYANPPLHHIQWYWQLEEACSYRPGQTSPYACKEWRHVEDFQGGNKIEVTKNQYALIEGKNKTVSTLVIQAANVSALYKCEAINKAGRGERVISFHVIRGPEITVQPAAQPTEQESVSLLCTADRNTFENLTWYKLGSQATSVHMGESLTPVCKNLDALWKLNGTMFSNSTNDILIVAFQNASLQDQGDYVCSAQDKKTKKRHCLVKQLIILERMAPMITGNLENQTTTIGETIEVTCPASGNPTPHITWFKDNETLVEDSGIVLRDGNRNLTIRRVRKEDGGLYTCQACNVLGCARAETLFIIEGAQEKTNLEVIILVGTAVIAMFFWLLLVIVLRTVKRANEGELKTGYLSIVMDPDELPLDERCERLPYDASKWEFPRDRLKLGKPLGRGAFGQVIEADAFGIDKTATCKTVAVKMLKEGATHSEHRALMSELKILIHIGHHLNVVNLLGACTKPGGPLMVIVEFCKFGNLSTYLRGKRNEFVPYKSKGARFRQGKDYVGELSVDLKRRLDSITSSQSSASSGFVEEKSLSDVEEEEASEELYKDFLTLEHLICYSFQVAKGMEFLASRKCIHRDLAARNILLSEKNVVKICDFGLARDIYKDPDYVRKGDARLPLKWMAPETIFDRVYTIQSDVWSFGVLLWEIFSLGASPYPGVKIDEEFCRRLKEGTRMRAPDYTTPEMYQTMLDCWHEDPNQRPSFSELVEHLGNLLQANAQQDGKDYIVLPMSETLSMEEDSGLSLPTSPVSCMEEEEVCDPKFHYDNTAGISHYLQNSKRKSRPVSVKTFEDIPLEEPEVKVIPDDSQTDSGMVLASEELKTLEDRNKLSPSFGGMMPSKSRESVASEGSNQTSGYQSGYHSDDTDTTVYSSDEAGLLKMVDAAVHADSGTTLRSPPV
Method: To better understand the cellular mechanism of peptide inhibition, a preliminary experiment was performed in which cells were stained with an anti-VEGFR2 antibody to track the cellular localization.

EGFR family = assay: EGF-induced ERK1/2 phosphorylation in HeLa cells (cross reactivity of VEGFR2 peptides); type: cell-based, human; conditions: EGF 25 ng/ml
Method: As a next step, to test the specificity of the VEGFR2 peptides, we tested their cross reactivity towards the EGFR family. Therefore, HeLa cells were treated with peptide B8 and B12 and subsequently stimulated with EGF (25ng/ml).

Corynebacterium = conditions: peptides with purity of >95%
Method: (§1) Bacteria were grown in a shaking incubator at 37° C. and 160rpm in 50 ml BHI , using individual colonies retrieved from a fresh overnight TSA-sheep blood plate. The cultures were grown to a density of approximately 1×10^8cells/ml and then diluted to 5×10^5 cells/ml in CAMHB (Mc Farland 0.5). Each well contained 100p.I (50p.I of peptide containing MHB plus 50 μl inoculum). The final cell density was 1×10^5 to 5×10^5/ml. After addition of the cell suspension, plates were incubated at 37° C. for 18 to 24 hours. The optical density at 590 nm (OD590) of each well was measured after 5 seconds of shaking the plate using Perkin Elmer spectrophotometer (1420 Multilabel Counter Vicotr 3). […] Each well, where no growth was observed, was also plated on TSA-sheep blood agar plates, incubated at 37° C. overnight and visually inspected.
(§2) A microbroth dilution method was used with twofold serial dilutions in CAMHB (according to EMEA guidelines) was used for screening of peptide activity, with concentrations ranging from 0.3 μg/mIto 200 μg/ml.

human erythrocytes = type: cell-based
Text: The detergent Tween was used as a positive control, causing 100% lysis of RBCs.

S. aureus ATCC 27853 = assay: Invasion assay: bacteria in infected HCT116 cell monolayers (CFU count); type: cell-based; conditions: 100 μg/ml, 90 minutes infection, 1 h treatment
Method: In this assay HCT116 cell monolayers (a human colon tumor cell line) were cultured at the bottom of a microwell plate. The next day fresh S. aureus ATCC 27853 bacteria were added (approximately 10^6 CFU/ml) and a negative uninfected control included. After 90 minutes of infection different dilution of peptides were added and the cultures were incubated for another hour. As a positive control Gentamycin was used, given that it has a good intracellular activity. Each well was washed with pre-warmed physiological water to get rid of any extra-cellular bacteria, followed by 1% Triton treatment to release all entrapped bacteria from mammalian cells. The content of the well was serially diluted and plated on TSA agar plates for CFU count.

Candida albicans SC5314 = assay: In vitro mature C. albicans biofilm formation on polystyrene (XTT reduction assay); type: cell-based; conditions: 250 μM, 50 μM and 10 μM; peptide during adhesion only or during whole biofilm development; p<0.001
Method: The initial screening and search for optimal Als3 candidate interferors was based on the C. albicans SC5314 adhesion assay on 96-well polystyrene plates upon administration of all the peptides at three different concentrations (250 μM, 50 μM and 10 μM). Based on the results obtained with this adhesion assay, we also tested the effect of peptides on mature biofilm development. The final election of the most optimal candidate interferor peptides was based on the results showing reduction in adhesion and mature biofilm formation caused by the lowest concentration of the peptide tested (10 μM or 2.5 μM).
In a next step, lower concentrations of peptide F9 (50 μM, 10 μM and 2.5 μM) were also tested. […] Both assays were performed in 96-well polystyrene plates and quantified by the XTT reduction assay (see material and methods section).
In vitro C. albicans biofilm was studied on three different types of biomaterials, namely flat bottom 96-well polystyrene plate (Greiner Bio-One, Germany), silicone (CS Hyde, USA) and polyurethane triple lumen intravenous catheters (2.4mm diameter) (Arrow International Reading, USA). […] After that, the biofilms were washed twice with 1×PBS and quantified.
The metabolic activity of Candida cells within in vitro biofilms was studied using the XTT reduction assay. […] The intensity of colorimetric change was measured by spectrophotometer (Spectra max Plus 384) at 490 nm. […]

T1 sequence (P00722 2-1024 with the stated changes limits assumed): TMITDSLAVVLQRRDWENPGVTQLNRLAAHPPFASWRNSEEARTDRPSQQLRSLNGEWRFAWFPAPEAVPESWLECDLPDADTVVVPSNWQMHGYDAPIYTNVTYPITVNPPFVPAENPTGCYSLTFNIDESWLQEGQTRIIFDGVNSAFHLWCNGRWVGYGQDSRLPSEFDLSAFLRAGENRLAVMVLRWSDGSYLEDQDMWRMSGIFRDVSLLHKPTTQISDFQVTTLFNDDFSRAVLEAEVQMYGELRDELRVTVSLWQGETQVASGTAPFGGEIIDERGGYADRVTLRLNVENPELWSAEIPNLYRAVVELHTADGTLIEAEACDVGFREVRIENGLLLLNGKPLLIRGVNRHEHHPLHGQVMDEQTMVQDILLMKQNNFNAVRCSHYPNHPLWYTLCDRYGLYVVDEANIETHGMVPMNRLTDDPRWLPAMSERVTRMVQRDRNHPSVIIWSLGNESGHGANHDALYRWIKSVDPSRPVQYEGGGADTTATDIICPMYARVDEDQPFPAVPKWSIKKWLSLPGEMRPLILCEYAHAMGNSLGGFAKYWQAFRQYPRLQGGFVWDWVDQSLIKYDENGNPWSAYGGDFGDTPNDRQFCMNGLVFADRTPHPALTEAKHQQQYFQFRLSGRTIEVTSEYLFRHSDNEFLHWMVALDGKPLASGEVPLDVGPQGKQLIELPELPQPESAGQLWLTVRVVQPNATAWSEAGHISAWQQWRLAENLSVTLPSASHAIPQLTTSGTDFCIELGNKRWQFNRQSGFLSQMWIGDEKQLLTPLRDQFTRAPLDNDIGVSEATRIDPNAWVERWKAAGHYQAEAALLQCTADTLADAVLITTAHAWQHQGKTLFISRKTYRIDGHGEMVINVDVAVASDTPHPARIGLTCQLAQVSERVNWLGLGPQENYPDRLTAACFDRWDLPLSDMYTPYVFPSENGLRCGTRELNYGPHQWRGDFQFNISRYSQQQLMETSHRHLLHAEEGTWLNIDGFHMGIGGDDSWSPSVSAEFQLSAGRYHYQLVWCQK
Method for S. epidermidis: as §1, §2

(His)6~RVIIWSLGNR [Tango 2 peptide]
enzymatic activity of β-galactosidase (β-Gal [1]): complete inhibition of enzymatic activity | ka1 (β-Gal [2]): 2.744E+4 | ka1 (second value printed) (β-Gal [2]): 0.02359 | ka3 (β-Gal [2]): 0.005491 | kd1 (β-Gal [2]): 0.4123 | kd2 (β-Gal [2]): 0.02509 | kd3 (β-Gal [2]): 0.002654

DLAVALWFDPPDLAVALWFD [B8]
cellular localization of VEGFR2 (mVEGFR2): no longer present on the cell surface | ERK1/2 phosphorylation after EGF stimulation (EGFR family): do not inhibit ERK1/2 phosphorylation

RFFIGLSRRGSRLFNFLKR [Hit57A]
MIC values against Corynebacterium (Corynebacterium): Not active | MIC (S. aureus): 50 µg/mL | MIC in presence of 50% FBS (S. aureus): 100 µg/mL | MIC values against MRSA 326 (S. aureus): 6 µg/mL | hemolytic activity (human erythrocytes): no significant hemolytic activity at clinically relevant concentrations | numbers of bacteria in infected cell monolayers (S. aureus ATCC 27853): effectively reduced the numbers of bacteria in infected cell monolayers

RNGIVIVATTR [E1]
biofilm formation (metabolic activity compared to control) (Candida albicans SC5314): significant reduction in biofilm formation

RRLFNFLKRGSRLFNFLKR [Hit24]
MIC values against S.epidermidis ATCC 12228 (S. epidermidis): 1.5 µg/mL | MIC (E. cloacae): 25 µg/mL | MIC values against S.aureus ATCC 29213 (S. aureus): 12.5 µg/mL | hemolytic activity (human erythrocytes): no significant hemolytic activity at clinically relevant concentrations
